Assays:
[1] = tested on: primary osteoblasts; assay: MTT assay for cell proliferation, primary osteoblast cell culture; type: cell-based, Balb/c mouse; settings: for Osteoblast cell proliferation (MTT assay) / osteoblast cell proliferation vs vehicle control: 24 h; for Osteoblast cell proliferation (MTT assay): Vehicle 0.60 ± 0.06, Mean±SEM; for osteoblast cell proliferation vs vehicle control: 10^−11 M to 10^−5 M
Method: (§1) Neonatal mouse calvarial cell cultures are prepared as described previously (Endocrinology 139:4743) using slight modification. Briefly, for primary osteoblast cell cultures, frontal and parietal bones from Balb/c mouse neonates (1-3 day old) are digested in 0.1% collagenase/0.1% dispase in α-MEM to obtain 5 sequential digests. The second through fifth digests are combined and grown to confluence at 37° C. and 5% CO2 in air in α-MEM, supplemented with 10% fetal bovine serum (FBS), 2 mM glutamine, 100 U/ml penicillin-streptomycin, Non-essential amino acid solution and sodium pyruvate. The effect of test agents is analysed using the following tests:
MTT assay is a common assay used for assessing cell proliferation where tetrazolium salt is reduced to formazone crystals by the mitochondrial dehydrogenase enzyme, which are then dissolved in DMSO. More the number of metabolically active cells more will be the formazone crystals formed. Briefly, osteoblast cells are maintained in α-MEM medium supplemented with 10% FCS and 1% antibiotic solution in 96 well plate. When the cells attain 40% confluency, they are treated in presence or absence of test agents in 2% FCS supplemented media for 24 h. Twenty-four hours thereafter, MTT salt is added to the cells. After 4 h, the formazone crystals formed are dissolved in DMSO and readings taken at wavelength of 570 nm.
This assay is based on the ability of viable cells to reduce tetrazolium salt to form formazone crystals by mitochondrial dehydrogenase enzyme. In MTT assay, osteoblasts are maintained in α-MEM medium supplemented with 10% FCS and 1% antibiotic solution in 96 well plate. When the cells attain 40% confluency, they are treated in presence or absence of test agents in 2% FCS supplemented media for 24 h. Twenty-four hours thereafter, MTT salt is added to the cells. After 4 h, the formazone crystals formed due to reduction of tetrazolium salt by mitochondrial dehydrogenase enzyme are dissolved in DMSO and readings taken at wavelength of 570 nm. All the five pure compounds nos.

[2] = tested on: osteoblast cells; assay: Quantification of mineralization in osteoblasts (Alizarin red, acetic acid extraction); type: cell-based, Balb/c mouse; settings: osteoblasts cultured 7 days; vs vehicle control; FIG. 13
Method: as §1
For quantification of mineralization which is measured with increased deposition of nascent calcium in osteoblast cells, cells were cultured in the presence of test compounds for 7 days and stained with Alizarin red. Alizarin red was extracted with acetic acid and the intensity of stain, which is directly proportion to the extent of mineralisation, is read at 405 nm.

[3] = tested on: osteoblasts cultured on sterile bovine bone slices; assay: Mineralisation by osteoblasts cultured on bovine bone slices, Alizarin red staining; type: cell-based, Balb/c mouse; settings: osteoblasts on bovine bone slices, 15 days; alone or in combination; FIGS. 14 and 15
Method: as §1
(§2) Cells are seeded onto sterile bovine bone slices in 96-well plate and treated with the culture medium containing α-MEM, supplemented with 10% fetal bovine serum, 2 mM glutamine, 100 U/ml penicillin-streptomycin, non-essential amino acid solution, sodium pyruvate, 10 mM P-glycerophosphate and 50 μg/ml ascorbic acid. Culture medium is changed every alternate day. At termination of the culture, cells are washed twice with PBS, fixed in cold 70% ethanol for 1 h and washed once with water and stained with 40 mM Alizarin red (pH 4.7) for 30 min and then washed in PBS to remove excess staining.
as §2, with “In case of osteoblasts” for “Cells are”, “slices, the cells are cultured” for “slices”, “in A-MEM” for “and treated with the culture medium containing α-MEM,”, “p-glycerophosphate” for “P-glycerophosphate”, “acid in the absence or presence of test compounds or their mixtures.” for “acid.”, “culture after 15 days,” for “culture,”

[4] = tested on: osteoblasts; assay: Osteogenic activity of isolated compounds based on alkaline phosphatase expression, MTT and mineralisation in vitro; type: cell-based
Text: K051, K052, K054, K080, K082 (isolated from n-butanol soluble fraction) and K095 (isolated from chloroform soluble fraction) (FIGS. 11-15; Tables 10-11).

[5] = tested on: osteoblasts; assay: Quantification of alkaline phosphatase activity in osteoblasts; type: cell-based, Balb/c mouse; set-up: alkaline phosphatase activity: unit not given here; settings: 48 h; for alkaline phosphatase activity: Control 1.87 ± 0.20, Mean±SEM; for expression of alkaline phosphatase vs vehicle control: 10^−11 M to 10^−5 M
Method: as §1
p-Nitrophenol phosphate is a colorless substrate which is hydrolysed to colored p-nitrophenol by alkaline phosphatase enzyme. Rate of hydrolysis of p-nitrophenol phosphate is proportional to enzyme present in sample. […] Findings reveal that all the five pure compounds nos.

SMILES	Osteoblast cell proliferation (MTT assay) ([1]; 10^−5 M)	Osteoblast cell proliferation (MTT assay) ([1]; 10^−6 M)	Osteoblast cell proliferation (MTT assay) ([1]; 10^−7 M)	Osteoblast cell proliferation (MTT assay) ([1]; 10^−8 M)	Osteoblast cell proliferation (MTT assay) ([1]; 10^−9 M)	Osteoblast cell proliferation (MTT assay) ([1]; 10^−10 M)	osteoblast cell proliferation vs vehicle control [1]	Osteoblast cell proliferation (MTT assay) ([1]; 10^−11 M)	relative potency in osteoblast proliferation (MTT) ([1]; order K052, K080, K095, K051, K054)	mineralisation quantified by alizarin extraction method [2]	intensity of alizarin red staining (rate of new bone formation) [3]	osteogenic activity [4]	alkaline phosphatase activity ([5]; 10^−5 M)	alkaline phosphatase activity ([5]; 10^−6 M)	alkaline phosphatase activity ([5]; 10^−7 M)	alkaline phosphatase activity ([5]; 10^−8 M)	alkaline phosphatase activity ([5]; 10^−9 M)	alkaline phosphatase activity ([5]; 10^−10 M)	expression of alkaline phosphatase vs vehicle control [5]	alkaline phosphatase activity ([5]; 10^−11 M)
COc1ccc2c(=O)c(-c3ccc(O)cc3)coc2c1 [Compound K052, 4′-hydroxy, 7-methoxy-isoflavone]	1.19 ± 0.01	1.86 ± 0.13	1.70 ± 0.15	1.73 ± 0.09	1.70 ± 0.08	1.43 ± 0.05	enhanced osteoblast cell proliferation	1.45 ± 0.23	most potent	enhanced mineralisation	increased intensity of alizarin red staining	promising osteogenic activity	2.29 ± 0.24	3.01 ± 0.09	3.05 ± 0.10	3.20 ± 0.06	3.07 ± 0.10	3.01 ± 0.26	increased expression of alkaline phosphatase	3.17 ± 0.06
COc1ccc(-c2c(C)oc3cc(O)ccc3c2=O)cc1 [Compound K082, 2-methyl, 7-hydroxy, 4′-methoxy isoflavone]										enhanced mineralisation	increased intensity of alizarin red staining	promising osteogenic activity								
COc1ccc(-c2coc3cc(O)ccc3c2=O)cc1 [Compound K080, 7-hydroxy, 4′-methoxy-isoflavone]	1.49 ± 0.03	1.55 ± 0.05	1.43 ± 0.09	1.47 ± 0.02	1.58 ± 0.09	1.35 ± 0.03	enhanced osteoblast cell proliferation	1.25 ± 0.09		enhanced mineralisation	increased intensity of alizarin red staining	promising osteogenic activity	3.45 ± 0.06	3.40 ± 0.02	3.46 ± 0.06	3.30 ± 0.01	3.33 ± 0.02	3.27 ± 0.08	increased expression of alkaline phosphatase	3.38 ± 0.02
COc1ccc(-c2coc3cc(O)ccc3c2=O)cc1O [Compound K054, 7, 3′-dihydroxy-4′-methoxyisoflavone]	1.40 ± 0.02	1.24 ± 0.01	1.26 ± 0.07	1.24 ± 0.06	1.06 ± 0.04	0.88 ± 0.09	enhanced osteoblast cell proliferation	0.75 ± 0.06		enhanced mineralisation	increased intensity of alizarin red staining	promising osteogenic activity	2.65 ± 0.09	3.25 ± 0.07	3.32 ± 0.06	3.35 ± 0.03	3.32 ± 0.09	3.22 ± 0.12	increased expression of alkaline phosphatase	3.01 ± 0.25
COc1cc(O)c2c(=O)c(-c3ccc(O)cc3O)coc2c1 [Compound K051, 2′,4′,5-trihydroxy-7-methoxy isoflavones]	1.32 ± 0.05	1.34 ± 0.09	1.33 ± 0.01	1.32 ± 0.04	1.03 ± 0.03	0.92 ± 0.05	enhanced osteoblast cell proliferation	0.85 ± 0.05		enhanced mineralisation	increased intensity of alizarin red staining	promising osteogenic activity	3.26 ± 0.07	3.24 ± 0.09	3.23 ± 0.11	3.41 ± 0.12	3.50 ± 0.07	3.59 ± 0.08	increased expression of alkaline phosphatase	3.63 ± 0.04
